Data reported in ChEMBL document CHEMBL3507680, “University of Dundee, Gates Library screen for HepG2 cell viability”.

Assay: Human HepG2 cell viability assay in 384 well format
Assay type: toxicity, cell-based
Design: dose 125 nL, time 70.5 hour; cytotoxicity at 70.5 h: concentration not given beside the values
Settings: HepG2 cells, read-out: Inhibition

O=C(NCc1ccc(Cl)s1)c1cc(CN2CCCC(O)C2)on1 (stereo not given)
cytotoxicity at 70.5 h: 19.4%

Cc1cnn(CC2CN(CC(=O)Nc3cccnc3)CCO2)c1 (stereo not given)
cytotoxicity at 70.5 h: -4.29%

CC(C)CN1CCS(=O)(=O)[C@@H]2CCN(S(=O)(=O)N(C)C)CC[C@@H]21
cytotoxicity at 70.5 h: -5.76%

CCOCCNCc1cc(O)c2cc(C)ccc2n1
cytotoxicity at 70.5 h: -5.02%

Cc1nc(C)n(CC(=O)N2CCCC(c3cc4ccccc4cn3)C2)n1 (stereo not given)
cytotoxicity at 70.5 h: -5.39%

O=C1CC(c2ccncc2)C2(CCN(CC3CC3)CC2)N1 (stereo not given)
cytotoxicity at 70.5 h: 14.8%

Cc1ccc(N2CCC(C(=O)NC3CCc4nccn4C3)CC2)nc1 (stereo not given)
cytotoxicity at 70.5 h: -90.5%

c1coc(CN2CCCn3c(CN4CCOCC4)nnc3C2)c1
cytotoxicity at 70.5 h: 1.6%

NC(=O)[C@@H]1CCCN1C(=O)c1cn(C/C=C/c2ccccc2)nn1
cytotoxicity at 70.5 h: -14%

COc1cccc2[nH]cc(CCNC(=O)N3CCCC3CO)c12 (stereo not given)
cytotoxicity at 70.5 h: 2.83%

O=C(c1ccc(-n2cccn2)cc1Cl)N1CCCC(O)(CO)C1 (stereo not given)
cytotoxicity at 70.5 h: -4.68%

CC1=C[C@@H](CN2CCOCC2)[C@H](C(C)C)C[C@H]1Cc1nnc(C)o1
cytotoxicity at 70.5 h: -5.39%

CC(c1nc(C2CC2)no1)N(C)Cc1cccc(F)c1 (stereo not given)
cytotoxicity at 70.5 h: -2.41%

CCn1c(C)cc(C(=O)N2CCCC(n3ccnc3C)C2)c1C (stereo not given)
cytotoxicity at 70.5 h: -6.2%

CCc1nsc(N2CCC3(CC2)OCCO3)n1
cytotoxicity at 70.5 h: -8.49%

Cc1cc(NC(=O)NCC(C)O)n(C)n1 (stereo not given)
cytotoxicity at 70.5 h: 0.0779%

CCn1cnnc1C1CCN(C(=O)CCCOc2ccccc2)CC1
cytotoxicity at 70.5 h: -3.85%

CC(=O)N1[C@H](Cn2cncn2)C[C@@H]2CN(S(C)(=O)=O)CC[C@@H]21
cytotoxicity at 70.5 h: -8.6%

Cc1cnc(CN(Cc2ccc(Cl)s2)C2CCN(C)C2)o1 (stereo not given)
cytotoxicity at 70.5 h: -9.93%

O=C(NCc1cnc2n1CCN(Cc1cccs1)C2)c1ccno1
cytotoxicity at 70.5 h: 18.9%

N#Cc1cccnc1NCCNC(=O)NCCSC(F)(F)F
cytotoxicity at 70.5 h: -10.1%

O=C1CCCC2=C1C(c1ccccc1F)Nc1nonc1N2 (stereo not given)
cytotoxicity at 70.5 h: -3.65%

N#CC1COCCN1C(=O)c1ccc2[nH]cnc2c1 (stereo not given)
cytotoxicity at 70.5 h: -1.24%

Cc1ccc(NC(=O)CNc2cccc(C(N)=O)c2C)c(C)c1
cytotoxicity at 70.5 h: 33.2%

CN1CCN(Cc2cccnc2)C2(CCN(Cc3ccoc3)C2)C1=O (stereo not given)
cytotoxicity at 70.5 h: 20.4%

CN(Cc1ccc(Cl)s1)C(=O)c1cccc(OCC(N)=O)c1
cytotoxicity at 70.5 h: -15.3%

CCc1noc(C)c1C(=O)N1CCCC1Cn1nc(C)cc1C (stereo not given)
cytotoxicity at 70.5 h: -3.58%

O=C(c1csc(-c2ccc(C(F)(F)F)cc2)n1)N1CCCNCC1
cytotoxicity at 70.5 h: -2.7%

Cc1nn(C)c(C)c1CN(C)C(=O)c1cc(NC(=O)C2CC2)n(C)n1
cytotoxicity at 70.5 h: -8.63%

CCN1C[C@@H]2CN(Cc3cccs3)C[C@@H]2C1=O
cytotoxicity at 70.5 h: -10.6%

Cc1ccoc1C(=O)N1Cc2c(Cn3ccnc3)nn(C)c2C1
cytotoxicity at 70.5 h: 20.4%

Cc1ccc(S(=O)(=O)N2CCC3(CC(C(=O)NCC4CC4)=NO3)C2)cc1 (stereo not given)
cytotoxicity at 70.5 h: -8.09%

CCOC(=O)c1coc(N2CCC(C(C)N3CCCC3)CC2)n1 (stereo not given)
cytotoxicity at 70.5 h: -1.58%

COc1nc(C)cc(C)c1CNC(=O)N(C)Cc1cnn(C)c1
cytotoxicity at 70.5 h: -18%

CS(=O)(=O)CCCNC1(c2ccc(Br)cc2)CCC1
cytotoxicity at 70.5 h: -5.79%

Cc1ccccc1CN1CCC2(CCCN2C(=O)C(C)C)CC1
cytotoxicity at 70.5 h: 32.8%

COc1ccc(C(NC(=O)NCc2nnc3n2CCC3)C2CC2)cc1 (stereo not given)
cytotoxicity at 70.5 h: 14.3%

Cc1ccc(-c2cc(C3CCNCC3)nc(C)n2)cc1
cytotoxicity at 70.5 h: -6.7%

O[C@@H]1Cc2ccccc2[C@@H]1Nc1ncccc1F
cytotoxicity at 70.5 h: -9.59%

Cc1ccc2c(n1)N(CCn1cccn1)CCN(C(=O)NC(C)C)C2
cytotoxicity at 70.5 h: 21.7%

COc1ccc(C(=O)N2CCCC(n3nc(C)nc3C)C2)c(OC)c1 (stereo not given)
cytotoxicity at 70.5 h: 21.8%

Cc1nc(CN2CCN(Cc3cc4n(n3)CCNC4)CC2)cs1
cytotoxicity at 70.5 h: 22.5%

Cc1nc(C)c(C(C)NCc2c(C)nn(C)c2N(C)C)s1 (stereo not given)
cytotoxicity at 70.5 h: -6.29%

Cc1nnc(C2Cc3ccccc3CN2Cc2nc(C(C)C)no2)o1 (stereo not given)
cytotoxicity at 70.5 h: 1.77%

COc1ccc(OCCN(C)c2cc(C)nc(N)n2)cc1
cytotoxicity at 70.5 h: -6.24%
